# In patent US12384767B2, “Probe for detection of cathepsin activity” (University of Florida Research Foundation, Incorporated, priority 2020, dated 2025):
# Where two headings read alike, the source gives them in different places. Residues, ends and D or L forms follow the SMILES beside them. *: point of attachment. AMC = Cc1cc(=O)oc2cc(N*)ccc12; Cbz = O=C(OCc1ccccc1)*
# Assays:
# [1] = standard, literature value; cited from earlier work
# [2] = target: CTB (Human Cathepsin B/CTSB Protein) (Homo sapiens, UniProt P07858); experiment: Time-course cathepsin assay, CTB signal normalized to CTL; assay type: biochemical; details: 5 uM probe, 5 nM enzyme, lowest competing signal over time course
# From the text: (§1) CTV and CTB appear to remain within the initial velocity region of the curves during this time, with a markedly lower slope than that observed for CTL initially.
# (§2) The kinetic assays were repeated at pH 5.0 (FIG. 3C, D), and overall the same trends were observed as at pH 6.5. One notable difference is the altered reaction slope of CTL at this pH, which appears to have less of a plateau and instead seems to shift to a second phase of constant, yet slower, velocity. […] This improved activity of CTB at low pH is consistent with previous observations that CTB's unique carboxypeptidase activity is dependent on an acidic environment, and that this activity is disengaged at neutral pH^13.
# (§3) To estimate relative selectivity of the compounds for CTL over the other enzymes, the intensity at each time point for CTB, CTV, or CTS, was divided by the intensity of CTL at the same time point; this normalizes CTL-generated signal intensity to 1.0, and expresses the relative signal generated by the other enzymes (FIG. 5). These graphs indicate that off-target signal is least prominent within the first 10 min of incubation, as the faster kinetics of the probes to CTL generate more contrast at these earlier time points. To quantify the selectivity of CTLAP and sc-3136, the lowest interfering signal from each enzyme was identified and tabulated in Table 1. Also identified was the assay time at which the total competing signal (sum of CTB, CTV, and CTS) was lowest, and the relative intensity of all competing enzymes at that time point. […] The optimum results are achieved within 10 min incubation time, lending strength to the application of CTLAP for rapid detection of CTL, even in the presence of competing enzymes.
# (§4) • 1. Recombinant human Cathepsin L/MEP protein (Active) • a. Product ab174030; Lot No. (Conc.) GR3210572-1 (N/A) Sino Biological • 1. Human Cathepsin B/CTSB Protein (His Tag) • a. Cat. No. 10483-H08H • 2. Human Cathepsin V/Cathepsin L2/Preproprotein Protein (His Tag) • a. Cat. No. 10093-H08H • 3. Human Cathepsin S/CTSS Protein (His Tag) • a. Cat. No. 10487-H08H Santa Cruz Biotechnology, Inc. • 1. […] Enzyme storage and preparation:
# (§5) Cathepsins reconstituted as usual and diluted into cathepsin reaction buffers (pH 5.0 or 6.5) in an opaque-bottom 96-well plate. Probes added quickly to each active well, then emission measured immediately on BioTek Synergy H1 plate reader, collecting consecutive 36 sec runs over the first 15 min of reaction time. Final probe concentration was 5 uM and final enzyme concentration was 5 nM.
# [3] = target: T1, CTV (Human Cathepsin V/Cathepsin L2) (Homo sapiens, UniProt O60911); experiment: Time-course cathepsin assay, CTV signal normalized to CTL; assay type: biochemical; details: 5 uM probe, 5 nM enzyme, lowest competing signal over time course
# T1 construct: His; purchased Sino Biological 10093-H08H
# T1 sequence (O60911 114-334): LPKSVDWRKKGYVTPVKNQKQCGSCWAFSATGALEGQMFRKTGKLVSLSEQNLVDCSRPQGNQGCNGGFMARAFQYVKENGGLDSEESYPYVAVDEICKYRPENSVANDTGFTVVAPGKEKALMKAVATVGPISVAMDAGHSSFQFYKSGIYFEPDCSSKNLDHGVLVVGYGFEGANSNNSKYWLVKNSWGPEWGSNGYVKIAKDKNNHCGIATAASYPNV
# From the text: as §1, §2, §3, §4, §5
# [4] = target: T2, CTS (Human Cathepsin S/CTSS Protein) (Homo sapiens, UniProt P25774); experiment: Time-course cathepsin assay, CTS signal normalized to CTL; assay type: biochemical; details: 5 uM probe, 5 nM enzyme, lowest competing signal over time course
# T2 construct: His; purchased Sino Biological 10487-H08H
# T2 sequence (P25774 115-331): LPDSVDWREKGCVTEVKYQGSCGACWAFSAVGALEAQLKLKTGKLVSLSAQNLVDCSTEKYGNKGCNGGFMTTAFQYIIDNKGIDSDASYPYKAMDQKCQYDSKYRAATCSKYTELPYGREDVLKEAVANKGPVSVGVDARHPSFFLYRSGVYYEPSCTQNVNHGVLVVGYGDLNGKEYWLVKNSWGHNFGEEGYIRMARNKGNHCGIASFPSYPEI
# From the text: as §1, §2, §3, §4, §5
# CTB, CTV, and CTS = experiment: Time-course cathepsin assay, total competing signal (sum of CTB, CTV, and CTS) normalized to CTL; assay type: biochemical, human; details: 5 uM probe, 5 nM enzyme
# From the text: as §1, §2, §3
# Table 1. Signal generated by CTB, CTV, and CTS, or all three enzymes together, relative to CTL signal at that time point. The lowest competing signal over the time course in FIG. 5 was selected for each individual enzyme, as well as for the sum of signals from all three enzymes. The time point at which the sum of all competing signals is lowest is also listed.
# • 1. Recombinant human Cathepsin L/MEP protein (Active) • a. Product ab174030; Lot No. (Conc.) GR3210572-1 (N/A) Sino Biological • 1. Human Cathepsin B/CTSB Protein (His Tag) • a. Cat. No. 10483-H08H • 2. Human Cathepsin V/Cathepsin L2/Preproprotein Protein (His Tag) • a. Cat. No. 10093-H08H • 3. Human Cathepsin S/CTSS Protein (His Tag) • a. Cat. No. 10487-H08H Santa Cruz Biotechnology, Inc. • 1. […]
# as §5, with “Final probe concentration was 5 uM and final enzyme concentration was 5 nM.” left out
# [5] = Background emission intensity of probes in buffer without enzyme; assay type: physicochemical; details: for emission intensity (background): stocks of equal absorbance at 330 nm, quadruplicate
# Procedure: This is attributed to the lower emission intensity observed in CTLAP in buffer without enzyme; the measured emission intensity of the compound at 5 μM is consistently 6- to 8-fold lower than that of sc-3136 (FIG. 6). As low background signal can improve the sensitivity and detection limit of fluorogenic assays, we sought to identify the cause of the low background intensity of CTLAP. We first examined the spectral and photophysical properties of the compound to confirm that this low background intensity was not an artifact of experimental methods.
# We next tested hypothesis (2), that the emission intensity measured for CTLAP or sc-3136 was somehow compromised by the experimental conditions or by the structural differences of the compounds.
# To duplicate unexpected absorbances from 4-131, stocks of probes from 4-128 used to create true 50 uM stocks. UV absorbance at 330 nm measured in a 96-well plate, then 150 uL transferred to an opaque-bottom plate and emission intensity (350/445 nm) was measured. Experiments run in quadruplicate, with a buffer blank. Measured on a BioTek Synergy H1.
# 50 uL of these solutions were diluted with 150 uL cathepsin L reaction buffer (pH 5.0) to give solutions of 5 uM compound in 25% DMSO/buffer. These samples were used to measure UV-Vis spectra (250-400 nm) on a Shimadzu UV-2700. A blank solution of 25% DMSO/buffer was used to baseline the instrument. Between samples, the cuvette was flushed with 200 uL DMSO, drained, and the next sample was added.
# The remaining 150 uL of solution was diluted with 450 uL buffer to give 600 uL of 5 uM compound in 25% DMSO/buffer. The solution was transferred to an opaque-bottom 96-well plate, in three aliquots of 200 uL. The plate was used to measure emission and excitation spectra, and quantitative endpoint emission intensities. All spectral scans were collected at 50 Gain, in 5 nm steps.
# [6] = Molar attenuation coefficient and quantum yield; assay type: physicochemical; details: for ε × 10^−3 (molar attenuation coefficient): absorption at 350 nm, standardized against 4-methylumbelliferone (MU); for ϕF (quantum yield): excitation 350 nm, emission 380-600 nm, standardized against MU
# Procedure: To determine quantum yields, standard curves of CTLAP and sc-3136 were constructed between 0-10 μM in buffer, and the absorbance and total emission was measured. Values for the molar attenuation coefficient and quantum yield were standardized using measured absorption and emission intensity of 4-methylumbelliferone (MU) and its literature quantum yield and molar attenuation coefficient^14. Absorption of the solutions at 350 nm was measured, and all three compounds reported good (R^2>0.96) linear fit with increasing concentration (FIG. 10A). To measure total emission intensity, the emission spectrum of each compound was collected between 380-600 nm at an excitation wavelength of 350 nm; the area under the emission curve was calculated and graphed as a function of absorption value at 350 nm for each sample (FIG. 10B).
# Compounds were compared to 4-methylumbelliferone (4-MU) and 2,4-difluoro-4-methylumbelliferone (DiFMU).
# To construct calibration curves, stock solutions of 4-MU and DiFMU were prepared at ˜1 mM, then diluted with buffer (carbonate buffer, pH 10) to 50 uM. From these solutions, standard curves were constructed at 50, 25, 10, 5, and 1 uM by dilution with carbonate buffer, pH 10.1. Solutions were plated in 96-well plates. Absorbance at 350 nm was measured, and the fluorescence curve at 350 nm excitation and 380-600 nm was measured. The absorbance at 350 nm was graphed against the area under the curve (AUC) of the fluorescence spectrum from 380-600 nm, and the slope of each line was used to calculate the quantum yield according to the equation: […]
# [7] = target: T3, CTL (Recombinant human Cathepsin L) (Homo sapiens, UniProt P07711); experiment: Probe activation by CTL, turn-on ratio and selectivity; assay type: biochemical
# T3 construct: purchased Abcam ab174030
# T3 sequence (P07711 114-333): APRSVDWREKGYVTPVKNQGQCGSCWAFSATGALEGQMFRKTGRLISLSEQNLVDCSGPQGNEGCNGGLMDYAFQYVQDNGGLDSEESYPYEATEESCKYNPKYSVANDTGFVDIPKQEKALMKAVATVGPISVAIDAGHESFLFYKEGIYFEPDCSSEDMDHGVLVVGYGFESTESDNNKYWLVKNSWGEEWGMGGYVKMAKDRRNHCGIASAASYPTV
# Procedure: as §1
# To determine the relative selectivity of either probe for CTL, we examined the turn-on ratio (TOR) of the probes in response to each enzyme over the first hour of incubation by dividing the emission intensity at each time point by the average intensity of the probe in buffer without enzyme (FIG. 4).
# as §4
# Enzyme stocks (2.5 uM) were thawed and diluted to 100 nM with cathepsin storage buffer (pH 5.5). From calibrated probe stocks were created 50 uM working stocks in DMSO (3-157 accidentally prepared to 62.5 uM instead). In a 96-well plate, solutions of cathepsin reaction buffer (either pH 5.0 or 6.5), enzyme (5 nM), and probe (5 uM) were prepared. Probe added last to the reaction wells, then read in Synergy H1 plate reader immediately (˜5 min) for emission intensity at 350-445 nm. The plate was read at various time points, then stored in fridge overnight but not quenched. The pH 5.0 plate was read again after 48 h to capture completed reaction stage, and to collect emission spectra at 350 nm excitation for both caged and activated compound wells. […]
# as §5, with “Final probe concentration was 5 uM and final enzyme concentration was 5 nM.” left out
# [8] = target: T3, CTL (Recombinant human Cathepsin L); experiment: HPLC analysis of probe processing by CTL; assay type: biochemical; details: incubated with CTL in buffer at pH 5.0
# Procedure: To confirm recognition of CTLAP by CTL, the probe was incubated with CTL in buffer at pH 5.0, and the probe was examined by HPLC analysis (FIG. 2). The compound alone in buffer retained maximum absorption at 330 nm.
# [4-105] Cathepsin L reconstituted as per manufacturer's instructions, then diluted in a preliminary cathepsin storage buffer, in line with a literature procedure^16 (100 mM NaOAc/MaOH, 100 mM NaCl, 10 mM DTT, 1 mM EDTA, pH 5.5). Frozen in −80° C. freezer, and a portion removed and diluted in more cathepsin storage buffer to create 100 nM stock.
# In opaque-bottom […], buffer (unfiltered) plated, then probes added, then enzyme added. Final solution in each well was 5 uM probe, 5 nM CTL, 10% DMSO/NaOAc buffer. Incubated at 37° C., removed at 10 min, 30 min, 1 h, and 4 h for measurement on plate reader (Synergy H1). […] Stored in tin foil at rt for 2 days, then stored in fridge.
# To observe probe conversion, a well was diluted with DI water and injected into HPLC. […] The UV absorption traces of the new product(s) matched that of AMC.
Structure (SMILES),Optimal (lowest) CTB signal normalized to CTL ([2]; pH 5.0) [%],Optimal (lowest) CTB signal normalized to CTL ([2]; pH 6.5) [%],Optimal (lowest) CTV signal normalized to CTL ([3]; pH 5.0) [%],Optimal (lowest) CTV signal normalized to CTL ([3]; pH 6.5) [%],Optimal (lowest) CTS signal normalized to CTL ([4]; pH 5.0) [%],Optimal (lowest) CTS signal normalized to CTL ([4]; pH 6.5) [%],"Lowest sum of signals from all three enzymes (B + V + S) normalized to CTL (CTB, CTV, and CTS; pH 5.0) [%]","Lowest sum of signals from all three enzymes (B + V + S) normalized to CTL (CTB, CTV, and CTS; pH 6.5) [%]",emission intensity (background) ([5]; 350/445 nm) [rfu],ε × 10^−3 (molar attenuation coefficient) [6],ϕF (quantum yield) [6],further results
"Cc1cc(=O)oc2cc(O)ccc12 [MU, 4-methylumbelliferone]",,,,,,,,,,,,ε × 10^−3 (molar attenuation coefficient) [1]: 19.3; ϕF (quantum yield) [1]: 0.63
"Cc1cc(=O)oc2cc(NC(=O)C(CCCN=C(N)N)NC(=O)C(Cc3ccccc3)NC(=O)OCc3ccccc3)ccc12 (stereo not drawn) [sc-3136, Z-FR-AMC] (Cbz-Phe-Arg-{AMC}; configuration not given here)",16,21,14,16,7,7,39,46,4.8e4,7.5,0.32,ratio of background intensity for sc-3136 over 3-157 ([5]; 350/445 nm): 7.8 ×; emission intensity ratio between sc-3136 and CTLAP ([5]; excitation at 330 nm): 6.9 fold; emission intensity ratio between sc-3136 and CTLAP ([5]; excitation at 350 nm): 6.3 fold
Cc1cc(=O)oc2cc(NC(=O)C(CCCCN)NC(=O)C(Cc3ccc(-c4cccs4)cc3)NC(=O)OCc3ccccc3)ccc12 (centres unmarked) [CTLAP],15,6,10,15,1,1,31,25,6.1e3,11.0,0.02,"selectivity for CTL over other cathepsins [7]: 6- to 10 fold; turn-on ratio (TOR) relative to that of sc-3136 ([7]; after 1 h incubation): approximately 4 fold; increase in emission intensity ([7]; within 10 min of incubation with CTL): 24 fold; conversion of probe to free AMC peak (HPLC) [8]: full conversion; emission intensity in buffer without enzyme, fold lower than sc-3136 ([5]; compound at 5 μM, 350 nm excitation, 445 nm emission): 6- to 8 fold"
